Test systems include LOX IMVI melanoma; A549 NSCLC; SNB-19 CNS; NCI-H522 lung; RXF 393 renal; BT-549 breast; MDA-MB-231 breast; SNB-75 CNS; UACC-62 melanoma; SK-MEL-2 melanoma.
Experiment in all cases: growth of human tumour cells (NCI), 48 h

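How tested: cells in 96-well plates exposed to compound for 48 hours at five concentrations. GI50 marks 50% less growth. Definition used: TGI = concentration required for complete inhibition of growth.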 Where only a bound is given, the exact number is not on record here.

Turning to `O=S(=O)(Nc1cc(Sc2cccc3cccnc23)c(O)c2ccccc12)c1ccccc1`, the GI50 in the test with LOX IMVI melanoma is 0.522 µM; in the test with A549 NSCLC, 0.747 µM; in the test on SNB-19 CNS, 1.98 µM; in the test with NCI-H522 lung, 2.12 µM; in the test with RXF 393 renal, 2.4 µM; with BT-549 breast, 2.9 µM. For the same compound, the GI50 is 0.47 µM in the test on MDA-MB-231 breast, 3.23 µM with SNB-75 CNS, 1.49 µM in the test on UACC-62 melanoma and 2.48 µM in the test with SK-MEL-2 melanoma. Moreover, the TGI in the test with LOX IMVI melanoma is 10.1 µM; with A549 NSCLC, 18.1 µM; in the test with SNB-19 CNS, 21.4 µM; in the test with NCI-H522 lung it was 8.17 µM; in the test with RXF 393 renal it was 12.3 µM; in the test on BT-549 breast it was 16 µM. Besides, the TGI in the test with MDA-MB-231 breast stood at 6.01 µM; in the test on SNB-75 CNS it was 16.9 µM; with UACC-62 melanoma, 4.33 µM; in the test with SK-MEL-2 melanoma, 13.4 µM.
`CC1=C[C@H]2c3c(c(O)c(O)c4oc(-c5ccccc5)cc(=O)c34)[C@H](c3cc(O)c(O)c4oc(-c5ccccc5)cc(=O)c34)[C@H]2C(C)(C)C1`: the GI50 in the test on LOX IMVI melanoma is 0.395 µM; in the test with A549 NSCLC, 0.29 µM; with SNB-19 CNS, 0.557 µM; with NCI-H522 lung, 1.77 µM; in the test with RXF 393 renal, 0.245 µM; in the test with BT-549 breast, 1.58 µM. The GI50 in the test on MDA-MB-231 breast is 2.71 µM; with SNB-75 CNS, 0.286 µM; with UACC-62 melanoma, 0.516 µM; in the test on SK-MEL-2 melanoma it was 1.77 µM. For the same compound, the TGI with LOX IMVI melanoma came out at 1.33 µM; in the test on A549 NSCLC it was 13.8 µM; in the test on SNB-19 CNS, 17 µM; in the test on NCI-H522 lung it was 6.23 µM; in the test on RXF 393 renal it was 1.86 µM; with BT-549 breast it was 8.59 µM. Moreover, the TGI in the test on MDA-MB-231 breast came to 17.7 µM; in the test with SNB-75 CNS it was 5.76 µM; with UACC-62 melanoma, 1.97 µM; with SK-MEL-2 melanoma, 9.61 µM.
With `C=C1CCC(CC[C@@H]2CC[C@]3(OC2)O[C@@]2(O)CC[C@]3(C)OC2(C)C)C(C)(C)[C@H]1C/C=C1/C(=O)OC[C@@H]1O` (stereo partly drawn), the TGI with LOX IMVI melanoma is 1.88 µM; in the test on A549 NSCLC it was 19.4 µM; with SNB-19 CNS, 8.88 µM; in the test on NCI-H522 lung it was 3.5 µM; in the test on RXF 393 renal, 4.88 µM; in the test with BT-549 breast it was 4.76 µM. In addition, the TGI worked out at 3.72 µM with MDA-MB-231 breast, 19.3 µM in the test with SNB-75 CNS, 3.8 µM in the test on UACC-62 melanoma and 1.36 µM in the test on SK-MEL-2 melanoma.
Take `CCSc1nc(SCC)c2cn[nH]c2n1`: the GI50 is 57.1 µM with LOX IMVI melanoma; 46.5 µM with A549 NSCLC; 46.8 µM in the test on SNB-19 CNS; 35.7 µM in the test with NCI-H522 lung; 29 µM in the test with RXF 393 renal; 37.5 µM in the test with BT-549 breast. Moreover, the GI50 with MDA-MB-231 breast was 23.2 µM; with SNB-75 CNS, more than 100 µM; with UACC-62 melanoma, 25.6 µM; with SK-MEL-2 melanoma, 61.5 µM. Also, the TGI in the test on LOX IMVI melanoma, in the test with A549 NSCLC, with SNB-19 CNS, with NCI-H522 lung, in the test with RXF 393 renal and with BT-549 breast was more than 100 µM in each case. The TGI was more than 100 µM in the test on MDA-MB-231 breast, more than 100 µM in the test with SNB-75 CNS, 92.7 µM in the test with UACC-62 melanoma and more than 100 µM with SK-MEL-2 melanoma.
For the compound `COc1ccc(CC2NCCc3cc(OC)c(OC)cc32)cc1Br` (stereo not drawn), the TGI is 47.1 µM in the test with LOX IMVI melanoma; more than 100 µM with A549 NSCLC; more than 100 µM in the test on SNB-19 CNS; more than 100 µM in the test with NCI-H522 lung; 59.1 µM in the test with RXF 393 renal; more than 100 µM in the test with BT-549 breast. Further, the TGI in the test on MDA-MB-231 breast is 57.3 µM; in the test on SNB-75 CNS it was more than 83.2 µM; in the test on UACC-62 melanoma it was more than 77.5 µM; in the test with SK-MEL-2 melanoma, 61.6 µM.
With `COc1ccc(C(=O)COc2ccc(/C=C3\COc4ccc(OC)cc4C3=O)cc2)cc1`, the GI50 is 6.59 µM in the test on LOX IMVI melanoma; more than 100 µM with A549 NSCLC; 29.8 µM with SNB-19 CNS; 16.7 µM in the test on NCI-H522 lung; 21.2 µM in the test with RXF 393 renal; 16.2 µM with BT-549 breast. Moreover, the GI50 in the test on MDA-MB-231 breast is 30 µM; in the test on SNB-75 CNS, 20 µM; with UACC-62 melanoma, 48.9 µM; in the test with SK-MEL-2 melanoma, 37.5 µM. For the same compound, the TGI with LOX IMVI melanoma is 24.2 µM; in the test with A549 NSCLC, more than 100 µM; in the test with SNB-19 CNS, more than 100 µM; in the test with NCI-H522 lung it was 74.5 µM; in the test with RXF 393 renal, 47.6 µM; in the test with BT-549 breast, 35.8 µM. Also, the TGI was 92.5 µM with MDA-MB-231 breast, 69.9 µM in the test on SNB-75 CNS, more than 100 µM with UACC-62 melanoma and more than 100 µM in the test with SK-MEL-2 melanoma.
`O=c1c2ccccc2c(=O)c2c1[nH]c1c(-c3ccccc3)c(-c3ccccc3)c(=O)c12`: the GI50 in the test on LOX IMVI melanoma is 2.55 µM; in the test on A549 NSCLC, 2.07 µM; with SNB-19 CNS, 3.26 µM; in the test with NCI-H522 lung, 2.19 µM; in the test on RXF 393 renal, 1.54 µM; in the test with BT-549 breast it was 2.09 µM. The GI50 is 4.97 µM in the test on MDA-MB-231 breast, 15.1 µM in the test on SNB-75 CNS, 1.72 µM in the test on UACC-62 melanoma and 2.84 µM with SK-MEL-2 melanoma. The TGI turned out to be 6.2 µM in the test with LOX IMVI melanoma; 6.6 µM in the test on A549 NSCLC; 11.8 µM with SNB-19 CNS; 5.73 µM with NCI-H522 lung; 5.02 µM with RXF 393 renal; 4.69 µM with BT-549 breast. Moreover, the TGI with MDA-MB-231 breast came to 43 µM; in the test with SNB-75 CNS it was 52.1 µM; in the test with UACC-62 melanoma it was 3.38 µM; in the test with SK-MEL-2 melanoma, 15.6 µM.
With `Clc1ccc(C=Nc2ccc3c(c2)Cc2ccccc2-3)c(Cl)c1`, the TGI in the test on LOX IMVI melanoma, in the test with A549 NSCLC, with SNB-19 CNS, with NCI-H522 lung, with RXF 393 renal and in the test with BT-549 breast was more than 100 µM in each case. Moreover, the TGI in the test on MDA-MB-231 breast, with SNB-75 CNS, with UACC-62 melanoma and with SK-MEL-2 melanoma was more than 100 µM each time.
Turning to `O=c1cc(NC2CCN(CCCc3ccccc3)CC2)c2cc(Cl)ccc2o1`, the GI50 was 5.8 µM with LOX IMVI melanoma; 13.4 µM in the test on A549 NSCLC; 13.4 µM in the test on SNB-19 CNS; 8.35 µM with NCI-H522 lung; 5.88 µM in the test on RXF 393 renal; 12.9 µM with BT-549 breast. Also, the GI50 is 9.42 µM with MDA-MB-231 breast, 8.1 µM with SNB-75 CNS, 15.1 µM in the test on UACC-62 melanoma and 18.4 µM in the test on SK-MEL-2 melanoma. In addition, the TGI with LOX IMVI melanoma is 19.2 µM; with A549 NSCLC it was 28.6 µM; with SNB-19 CNS, 29.8 µM; in the test with NCI-H522 lung it was 23.5 µM; in the test with RXF 393 renal, 21.2 µM; in the test on BT-549 breast, 26.8 µM. Also, the TGI in the test on MDA-MB-231 breast was found to be 22.9 µM; in the test on SNB-75 CNS, 21.1 µM; in the test on UACC-62 melanoma, 29.8 µM; in the test on SK-MEL-2 melanoma, 33.1 µM.
On to `C#Cc1c(I)n(C2OC(CO[Si](C)(C)C(C)(C)C)C3OC(C)(C)OC32)c(=O)[nH]c1=O` (stereo not drawn), for which the GI50 in the test on LOX IMVI melanoma was 3.42 µM; in the test with A549 NSCLC, 49.6 µM; with SNB-19 CNS it was 24.1 µM; in the test with NCI-H522 lung it was 1.72 µM; in the test with RXF 393 renal, 3.68 µM; in the test on BT-549 breast, 16.4 µM. The GI50 with MDA-MB-231 breast is 5.24 µM; in the test on SNB-75 CNS, 14.4 µM; in the test on UACC-62 melanoma, 17.9 µM; with SK-MEL-2 melanoma, 5.35 µM. Further, the TGI is 18.5 µM in the test with LOX IMVI melanoma; more than 100 µM in the test with A549 NSCLC; 78.8 µM in the test on SNB-19 CNS; 3.52 µM in the test on NCI-H522 lung; 14.2 µM in the test with RXF 393 renal; 31.2 µM in the test on BT-549 breast. For the same compound, the TGI turned out to be 19.9 µM in the test with MDA-MB-231 breast, 29.4 µM in the test on SNB-75 CNS, 33.7 µM in the test on UACC-62 melanoma and 26.1 µM with SK-MEL-2 melanoma.
Take `O=c1cccc(C#CC#CC2=CCCCC2)o1`: the GI50 with LOX IMVI melanoma was 3.09 µM; in the test with A549 NSCLC, 10.1 µM; with SNB-19 CNS, 12 µM; in the test on NCI-H522 lung, 4.03 µM; with RXF 393 renal, 2.69 µM; in the test on BT-549 breast it was 2.57 µM. Moreover, the GI50 in the test on MDA-MB-231 breast was 1.96 µM; with SNB-75 CNS, 7.1 µM; with UACC-62 melanoma, 2.87 µM; with SK-MEL-2 melanoma, 10.3 µM. In addition, the TGI in the test on A549 NSCLC was more than 47.7 µM; in the test on SNB-19 CNS, 32.6 µM; in the test on NCI-H522 lung, 10.9 µM; in the test on RXF 393 renal, 5.57 µM; with MDA-MB-231 breast, 5.3 µM; in the test with SNB-75 CNS it was 36.8 µM. The results for the TGI in the test on UACC-62 melanoma and in the test with SK-MEL-2 melanoma were 8.56 µM and more than 49 µM, respectively.
